In patent US12298308B2, “Neoadjuvant chemotherapy induces breast cancer metastasis through a TMEM-mediated mechanism” (Albert Einstein College of Medicine, priority 2017, dated 2025):

How the values were obtained:
Mena^INV [1] = assay: Mena^INV expression before and after NAC or paclitaxel in breast cancer patients; type: in vivo, human; conditions: qRT-PCR in FNA biopsies before and one week after second dose of weekly paclitaxel; n=5
From the text: To further substantiate the translational importance of our preclinical data from PyMT and PDX mice receiving neoadjuvant paclitaxel into human breast cancer patients, we compared Mena^INV expression levels in Pre- and Post-NAC samples. […] Additionally, we analyzed Mena^INV expression by qRT-PCR in fine needle aspiration (FNA) biopsies taken before and one week after the second dose of weekly paclitaxel in an independent small cohort of patients (n=5).
(§1) Immunofluorescence. Slides were deparaffinized by melting at 60° C. in an oven equipped with a fan for 20 minutes, followed by 2× xylene treatment for 20 minutes. Slides were rehydrated and antigen retrieval was done in 1 mM EDTA (pH 8.0) or 1× citrate buffer (pH 6.0) (Diagnostic BioSystems) at 97° C. for 20 minutes in a conventional steamer. Endogenous peroxidase was blocked by using 0.3% hydrogen peroxide in water, followed by incubation of slides in a blocking buffer solution (10% FBS, 1% BSA, 0.0025% fish skin gelatin in 0.05% PBST) for 60 minutes at room temperature. […]

circulating tumor cells = assay: Circulating tumor cells per mL of blood; type: in vivo, mouse
Description: (§2) Drug Administration. The following drugs were administered in mice: Paclitaxel was given at 10 mg/Kg i.v every 5 days for 2 weeks; Doxorubicin was given at 5 mg/Kg i.v. every 5 days for 2 weeks; Cyclophosphamide was given at 120 mg/Kg i.p. only once; Rebastinib was given at 10 mg/Kg per os, every 3-4 days for 4 weeks.
Circulating Tumor Cells. Mice were anesthetized with 3.5-4.5% isoflurane, and blood was taken from the right ventricle by heart puncture, using 25G needles coated with heparin. Erythrocytes were lysed, using 10 ml of 1×RBC lysis buffer (multi-species, eBioscience). Cancer cells were quantified, as previously described (31, 60).

breast tumors = assay: Tumor growth in mouse breast carcinoma models; type: in vivo; conditions: 10 mg/Kg paclitaxel every five days, three times; vs non-treated controls
From the text: Herein, the possibility was examined that neoadjuvant paclitaxel promotes TMEM assembly and cancer cell dissemination and metastasis. This hypothesis was investigated in the following breast carcinoma models: (i) transgenic MMTV-PyMT mice bearing spontaneous breast tumors, (ii) FVB mice transplanted orthotopically with tumors from MMTV-PyMT donors, and (iii) two patient-derived xenografts (PDX), HT17 and HT33, developed previously in our laboratory (31). […] Treatment of all groups began at the early carcinoma stage (tumor size of ˜0.3 cm) when there is minimal or absent necrosis. It was decided to work with the early-stage PyMT mouse mammary carcinoma model because it more accurately reflects clinically relevant scenarios where most women present with small tumors of <2 cm (32). At the end of treatment all tumors were histologically classified as invasive carcinomas.
as §2
Animals and Animal Procedures. MMTV-PyMT mice were bred in-house at the Albert Einstein College of Medicine (AECOM). Generation of MMTV-PyMT Mena^−/− has been described previously (28). […]

Mena^INV [2] = assay: Mena^INV protein expression by immunofluorescence in mouse tumors; type: in vivo; conditions: PyMT-spontaneous and HT17-xenograft models; p<0.0001
From the text: To test this hypothesis, qRT-PCR analysis was first performed for total Mena (panMena), Mena11a and Mena^INV on formalin-fixed paraffin-embedded (FFPE) tumors from all mouse models. […] As shown in the specific Mena^INV IF, the pattern of Mena^INV expression in PyMT mice was heterogeneous (FIG. 4F), consistent with previous observations (40). […] In addition, there was an inverse correlation for the anti-metastatic Mena11a (p<0.01, […]).
as §1

MDA-MB-213 xenografts = conditions: paclitaxel-treated vs control MDA-MB-213 xenografts; cited from earlier work

In the case of CC(=O)O[C@H]1C(=O)[C@@]2(C)[C@H]([C@H](OC(=O)c3ccccc3)[C@]3(O)C[C@H](OC(=O)[C@H](O)[C@@H](NC(=O)c4ccccc4)c4ccccc4)C(C)=C1C3(C)C)[C@]1(OC(C)=O)CO[C@@H]1C[C@@H]2O [paclitaxel], the “patients with increase of Mena^INV gene-expression” value (Mena^INV [1]) was 4/5, the “number of CTCs in the blood” value (circulating tumor cells; Mena^-/- PyMT-CFP transplants) was “failed to boost” and the “increase in circulating tumor cells (CTCs)” value (circulating tumor cells; all experimental models examined, p<0.05) was “at least 2 fold”. For the same compound, the “number of CTCs (TMEM activity)” value (circulating tumor cells; single agent vs vehicle, PyMT-transplantation and HT17 xenograft) was “significant increases”, the tumor growth (breast tumors) was “delayed tumor growth” and the “Mena^INV expression at the protein level” value (Mena^INV [2]) was “increased expression”. The Mena expression (MDA-MB-213 xenografts) was “significantly increased” and the “Mena^INV expression” value (MDA-MB-213 xenografts) was “significantly increased”.
